Experimental data from PMC4648050, “Discovery of Inhibitors of Trypanosoma brucei by Phenotypic Screening of a Focused Protein Kinase Library” (Chemmedchem, 2015).

Assays:
VEG-FR = VEG-FR (Homo sapiens, UniProt P17948); experiment: Kinase panel: VEG-FR; assay type: biochemical, human/mammalian; details: compound at 10 μM, read-out: % of activity respect of the control
Experimental: (§1) The DDU kinase-focused compound set contains lead-like scaffolds that are designed to target protein kinases; they have kinase hinge binding motifs. Four of the 1H-imidazopyrazinones were screened against a human/mammalian kinase panel at the University of Dundee (http://www.kinase-screen.mrc.ac.uk) at a concentration of 10 μM. At the time of testing the panel contained 79 mammalian kinases selected to provide a broad coverage of the mammalian kinome (∼500 kinases in the human genome).[3] None of the compounds were active against any of the kinases at 10 μM.

MNK2 = MNK2 (Homo sapiens, UniProt Q9HBH9); experiment: Kinase panel: MNK2; assay type: biochemical, human/mammalian; details: compound at 10 μM, read-out: % of activity respect of the control
MNK2, sequence (Q9HBH9 whole entry): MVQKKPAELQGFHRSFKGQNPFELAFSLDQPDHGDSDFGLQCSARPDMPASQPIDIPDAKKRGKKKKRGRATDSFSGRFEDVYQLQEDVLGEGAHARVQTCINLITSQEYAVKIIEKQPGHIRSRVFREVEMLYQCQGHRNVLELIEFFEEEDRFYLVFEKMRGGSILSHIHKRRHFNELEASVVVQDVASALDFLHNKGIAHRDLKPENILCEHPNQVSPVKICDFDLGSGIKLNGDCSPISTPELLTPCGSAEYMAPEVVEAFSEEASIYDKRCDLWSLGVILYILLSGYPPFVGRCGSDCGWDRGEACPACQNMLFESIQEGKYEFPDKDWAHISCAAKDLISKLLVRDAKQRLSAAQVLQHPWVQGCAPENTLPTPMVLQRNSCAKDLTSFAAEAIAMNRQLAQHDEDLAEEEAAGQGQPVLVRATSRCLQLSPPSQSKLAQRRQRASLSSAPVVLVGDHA
Experimental: as §1

MST4 = MST4 (Homo sapiens, UniProt Q9P289); experiment: Kinase panel: MST4; assay type: biochemical, human/mammalian; details: compound at 10 μM, read-out: % of activity respect of the control
MST4, sequence (Q9P289 whole entry): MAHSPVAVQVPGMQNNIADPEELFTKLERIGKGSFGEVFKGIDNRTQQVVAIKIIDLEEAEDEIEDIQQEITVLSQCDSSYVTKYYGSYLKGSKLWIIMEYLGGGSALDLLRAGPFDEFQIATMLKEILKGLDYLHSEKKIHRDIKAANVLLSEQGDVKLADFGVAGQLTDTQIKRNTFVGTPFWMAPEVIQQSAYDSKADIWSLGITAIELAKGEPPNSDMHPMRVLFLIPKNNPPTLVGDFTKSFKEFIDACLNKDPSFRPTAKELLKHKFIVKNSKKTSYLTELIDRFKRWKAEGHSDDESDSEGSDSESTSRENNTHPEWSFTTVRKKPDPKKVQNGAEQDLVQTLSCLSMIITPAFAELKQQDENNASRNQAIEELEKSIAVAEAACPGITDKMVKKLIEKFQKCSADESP
Experimental: as §1

SmMLCK = SmMLCK (Homo sapiens, UniProt Q15746); experiment: Kinase panel: SmMLCK; assay type: biochemical, human/mammalian; details: compound at 10 μM, read-out: % of activity respect of the control
SmMLCK, sequence (Q15746 923-1914): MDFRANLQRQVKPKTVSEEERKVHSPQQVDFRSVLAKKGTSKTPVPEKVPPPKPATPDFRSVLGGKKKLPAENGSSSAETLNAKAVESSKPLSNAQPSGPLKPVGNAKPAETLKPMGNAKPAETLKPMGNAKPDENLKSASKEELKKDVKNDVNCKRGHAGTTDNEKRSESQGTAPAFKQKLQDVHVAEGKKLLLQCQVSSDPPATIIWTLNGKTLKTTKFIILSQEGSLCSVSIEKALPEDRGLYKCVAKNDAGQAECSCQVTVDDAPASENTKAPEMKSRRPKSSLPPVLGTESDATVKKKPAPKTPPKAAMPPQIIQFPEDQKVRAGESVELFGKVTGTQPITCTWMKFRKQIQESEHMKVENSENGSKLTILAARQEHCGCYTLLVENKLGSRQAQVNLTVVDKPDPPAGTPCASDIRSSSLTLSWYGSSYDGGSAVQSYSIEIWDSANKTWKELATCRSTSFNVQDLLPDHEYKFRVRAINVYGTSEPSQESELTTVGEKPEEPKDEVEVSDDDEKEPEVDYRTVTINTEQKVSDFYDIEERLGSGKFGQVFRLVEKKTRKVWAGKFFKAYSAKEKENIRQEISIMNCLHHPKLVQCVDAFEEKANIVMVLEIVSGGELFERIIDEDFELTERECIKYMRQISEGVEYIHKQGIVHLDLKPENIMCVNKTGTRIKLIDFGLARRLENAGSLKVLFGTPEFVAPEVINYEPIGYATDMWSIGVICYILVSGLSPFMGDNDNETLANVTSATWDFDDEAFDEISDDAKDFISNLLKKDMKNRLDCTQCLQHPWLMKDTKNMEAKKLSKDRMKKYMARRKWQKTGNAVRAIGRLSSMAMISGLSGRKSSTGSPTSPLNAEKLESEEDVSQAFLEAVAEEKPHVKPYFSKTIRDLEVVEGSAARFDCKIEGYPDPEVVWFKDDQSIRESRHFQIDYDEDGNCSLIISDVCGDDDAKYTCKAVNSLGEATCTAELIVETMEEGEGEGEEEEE
Experimental: as §1

Src = Src (Homo sapiens, UniProt P12931); experiment: Kinase panel: Src; assay type: biochemical, human/mammalian; details: compound at 10 μM, read-out: % of activity respect of the control
Experimental: as §1

NEK2a = target: T1, NEK2a (Homo sapiens, UniProt P51955); experiment: Kinase panel: NEK2a; assay type: biochemical, human/mammalian; details: compound at 10 μM, read-out: % of activity respect of the control
T1 sequence (P51955 1-445): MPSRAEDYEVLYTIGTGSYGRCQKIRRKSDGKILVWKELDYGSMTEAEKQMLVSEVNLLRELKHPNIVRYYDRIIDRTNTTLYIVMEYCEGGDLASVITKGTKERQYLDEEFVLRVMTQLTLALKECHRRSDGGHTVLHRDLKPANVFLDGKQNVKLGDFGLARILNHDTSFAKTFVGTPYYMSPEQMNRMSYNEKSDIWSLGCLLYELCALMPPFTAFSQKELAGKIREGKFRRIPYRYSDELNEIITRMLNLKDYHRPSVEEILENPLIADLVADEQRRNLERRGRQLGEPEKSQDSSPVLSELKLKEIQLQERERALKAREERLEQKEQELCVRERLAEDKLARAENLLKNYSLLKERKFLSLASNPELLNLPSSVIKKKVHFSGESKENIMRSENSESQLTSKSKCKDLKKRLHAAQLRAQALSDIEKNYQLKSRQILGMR
Experimental: as §1

[1] = test system: MRC5 cells (human lung fibroblasts); experiment: MRC5 proliferation assay; assay type: cell-based; details: geometric mean of two or more determinations
Method in brief: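 Bloodstream-stage T. brucei or MRC5 cells (MRC5 in MEM + 10% FBS), 2×10^3 per well, exposed to compounds ([…] to 0.5 nM) for 69 h at 37 °C, 5% CO2. Viability read by fluorescence after a further 4 h with 50 μM resazurin.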

DYRK3 = target: T2, DYRK3 (Homo sapiens, UniProt O43781); experiment: Kinase panel: DYRK3; assay type: biochemical, human/mammalian; details: compound at 10 μM, read-out: % of activity respect of the control
T2 sequence (O43781 1-588): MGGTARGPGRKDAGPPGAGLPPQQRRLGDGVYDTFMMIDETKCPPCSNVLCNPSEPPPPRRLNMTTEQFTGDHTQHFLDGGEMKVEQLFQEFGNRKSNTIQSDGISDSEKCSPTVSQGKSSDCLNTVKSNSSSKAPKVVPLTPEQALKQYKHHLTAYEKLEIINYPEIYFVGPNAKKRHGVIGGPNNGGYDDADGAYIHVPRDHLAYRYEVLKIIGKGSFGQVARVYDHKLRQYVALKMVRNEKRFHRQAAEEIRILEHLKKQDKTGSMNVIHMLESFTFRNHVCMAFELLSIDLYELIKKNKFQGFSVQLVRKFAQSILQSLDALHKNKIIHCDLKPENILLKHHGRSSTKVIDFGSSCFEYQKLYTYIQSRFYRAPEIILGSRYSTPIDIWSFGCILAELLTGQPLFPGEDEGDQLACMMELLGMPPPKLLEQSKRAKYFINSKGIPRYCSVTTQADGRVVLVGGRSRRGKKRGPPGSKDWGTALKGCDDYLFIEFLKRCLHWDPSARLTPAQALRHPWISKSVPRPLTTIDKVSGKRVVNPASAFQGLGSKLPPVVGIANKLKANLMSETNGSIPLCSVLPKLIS
Experimental: as §1

PIM3 = PIM3 (Homo sapiens, UniProt Q86V86); experiment: Kinase panel: PIM3; assay type: biochemical, human/mammalian; details: compound at 10 μM, read-out: % of activity respect of the control
Experimental: as §1

IR-HIS = IR-HIS (Homo sapiens, UniProt P06213); experiment: Kinase panel: IR-HIS; assay type: biochemical, human/mammalian; details: compound at 10 μM, read-out: % of activity respect of the control
IR-HIS, sequence (P06213 28-1382): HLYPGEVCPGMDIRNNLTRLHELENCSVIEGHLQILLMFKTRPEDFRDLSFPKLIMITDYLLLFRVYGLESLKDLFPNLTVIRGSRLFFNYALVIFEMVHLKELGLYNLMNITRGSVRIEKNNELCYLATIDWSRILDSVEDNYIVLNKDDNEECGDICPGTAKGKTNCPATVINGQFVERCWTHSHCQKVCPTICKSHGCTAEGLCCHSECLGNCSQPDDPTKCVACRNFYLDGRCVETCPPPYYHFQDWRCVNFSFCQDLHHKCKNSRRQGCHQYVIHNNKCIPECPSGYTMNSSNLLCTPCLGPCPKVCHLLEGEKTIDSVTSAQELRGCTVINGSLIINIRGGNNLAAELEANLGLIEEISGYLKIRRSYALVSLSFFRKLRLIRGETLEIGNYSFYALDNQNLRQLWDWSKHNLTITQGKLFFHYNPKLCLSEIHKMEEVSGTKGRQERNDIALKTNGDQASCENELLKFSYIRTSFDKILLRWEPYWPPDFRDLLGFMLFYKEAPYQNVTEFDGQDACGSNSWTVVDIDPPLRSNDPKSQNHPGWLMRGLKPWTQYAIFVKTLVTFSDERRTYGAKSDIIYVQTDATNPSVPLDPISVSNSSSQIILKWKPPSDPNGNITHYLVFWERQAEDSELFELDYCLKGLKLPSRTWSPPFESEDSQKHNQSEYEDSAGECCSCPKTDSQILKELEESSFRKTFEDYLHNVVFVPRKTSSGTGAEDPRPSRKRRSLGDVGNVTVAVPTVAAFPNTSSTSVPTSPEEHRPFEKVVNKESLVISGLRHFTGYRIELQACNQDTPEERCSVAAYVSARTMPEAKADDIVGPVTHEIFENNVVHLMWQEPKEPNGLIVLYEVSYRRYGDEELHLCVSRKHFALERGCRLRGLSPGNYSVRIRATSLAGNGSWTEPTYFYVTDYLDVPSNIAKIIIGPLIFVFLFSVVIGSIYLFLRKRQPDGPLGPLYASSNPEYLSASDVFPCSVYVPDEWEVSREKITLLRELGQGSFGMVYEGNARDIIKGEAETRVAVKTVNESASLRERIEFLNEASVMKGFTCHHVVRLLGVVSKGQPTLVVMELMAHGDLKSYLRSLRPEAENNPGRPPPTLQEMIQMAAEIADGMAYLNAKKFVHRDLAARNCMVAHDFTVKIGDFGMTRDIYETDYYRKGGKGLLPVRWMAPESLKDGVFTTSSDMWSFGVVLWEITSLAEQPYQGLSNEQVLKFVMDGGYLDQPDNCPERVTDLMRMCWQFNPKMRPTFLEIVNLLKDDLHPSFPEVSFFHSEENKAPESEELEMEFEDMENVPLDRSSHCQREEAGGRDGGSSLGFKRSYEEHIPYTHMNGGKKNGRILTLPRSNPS
Experimental: as §1

PLK1 (Okadaic Acid) = PLK1 (Okadaic Acid) (Homo sapiens, UniProt P53350); experiment: Kinase panel: PLK1 (Okadaic Acid); assay type: biochemical, human/mammalian; details: compound at 10 μM, read-out: % of activity respect of the control
PLK1 (Okadaic Acid), sequence (P53350 whole entry): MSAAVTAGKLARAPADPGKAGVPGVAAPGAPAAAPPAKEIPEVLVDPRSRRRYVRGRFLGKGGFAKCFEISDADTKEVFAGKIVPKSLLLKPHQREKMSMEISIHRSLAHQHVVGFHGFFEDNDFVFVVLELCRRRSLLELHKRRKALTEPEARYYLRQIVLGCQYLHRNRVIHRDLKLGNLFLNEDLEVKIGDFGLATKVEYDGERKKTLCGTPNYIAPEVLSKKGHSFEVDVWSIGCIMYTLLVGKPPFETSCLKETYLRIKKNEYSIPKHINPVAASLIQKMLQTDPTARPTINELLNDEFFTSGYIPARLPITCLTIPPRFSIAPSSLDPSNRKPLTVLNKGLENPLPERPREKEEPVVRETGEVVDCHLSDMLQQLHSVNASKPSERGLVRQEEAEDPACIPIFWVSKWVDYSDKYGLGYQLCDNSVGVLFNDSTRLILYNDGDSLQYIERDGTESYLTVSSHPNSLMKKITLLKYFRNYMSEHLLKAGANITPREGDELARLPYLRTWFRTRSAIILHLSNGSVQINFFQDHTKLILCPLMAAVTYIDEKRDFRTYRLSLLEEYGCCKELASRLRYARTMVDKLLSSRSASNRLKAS
Experimental: as §1

IKKe = target: T3, IKKe (Homo sapiens, UniProt Q14164); experiment: Kinase panel: IKKe; assay type: biochemical, human/mammalian; details: compound at 10 μM, read-out: % of activity respect of the control
T3 sequence (Q14164 1-716): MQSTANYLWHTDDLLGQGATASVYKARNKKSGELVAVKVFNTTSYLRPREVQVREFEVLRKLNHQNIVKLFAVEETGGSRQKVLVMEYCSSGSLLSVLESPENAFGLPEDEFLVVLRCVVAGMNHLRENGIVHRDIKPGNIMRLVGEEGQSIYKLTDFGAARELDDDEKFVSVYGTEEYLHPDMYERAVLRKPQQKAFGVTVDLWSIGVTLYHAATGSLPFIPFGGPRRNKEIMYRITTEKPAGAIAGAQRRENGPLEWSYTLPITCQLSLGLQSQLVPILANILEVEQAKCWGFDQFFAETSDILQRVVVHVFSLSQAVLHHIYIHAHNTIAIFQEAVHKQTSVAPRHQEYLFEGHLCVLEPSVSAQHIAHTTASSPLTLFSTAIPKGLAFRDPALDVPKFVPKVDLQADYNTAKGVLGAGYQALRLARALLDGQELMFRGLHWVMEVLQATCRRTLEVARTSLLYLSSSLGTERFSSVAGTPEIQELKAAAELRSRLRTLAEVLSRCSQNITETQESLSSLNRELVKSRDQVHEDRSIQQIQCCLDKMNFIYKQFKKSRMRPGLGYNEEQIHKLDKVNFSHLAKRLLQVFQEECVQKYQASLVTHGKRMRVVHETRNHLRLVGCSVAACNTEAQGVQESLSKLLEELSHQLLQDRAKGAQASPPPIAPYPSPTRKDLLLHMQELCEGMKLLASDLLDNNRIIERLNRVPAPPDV
Experimental: as §1

HIPK2 = HIPK2 (Homo sapiens, UniProt Q9H2X6); experiment: Kinase panel: HIPK2; assay type: biochemical, human/mammalian; details: compound at 10 μM, read-out: % of activity respect of the control
HIPK2, sequence (Q9H2X6 whole entry): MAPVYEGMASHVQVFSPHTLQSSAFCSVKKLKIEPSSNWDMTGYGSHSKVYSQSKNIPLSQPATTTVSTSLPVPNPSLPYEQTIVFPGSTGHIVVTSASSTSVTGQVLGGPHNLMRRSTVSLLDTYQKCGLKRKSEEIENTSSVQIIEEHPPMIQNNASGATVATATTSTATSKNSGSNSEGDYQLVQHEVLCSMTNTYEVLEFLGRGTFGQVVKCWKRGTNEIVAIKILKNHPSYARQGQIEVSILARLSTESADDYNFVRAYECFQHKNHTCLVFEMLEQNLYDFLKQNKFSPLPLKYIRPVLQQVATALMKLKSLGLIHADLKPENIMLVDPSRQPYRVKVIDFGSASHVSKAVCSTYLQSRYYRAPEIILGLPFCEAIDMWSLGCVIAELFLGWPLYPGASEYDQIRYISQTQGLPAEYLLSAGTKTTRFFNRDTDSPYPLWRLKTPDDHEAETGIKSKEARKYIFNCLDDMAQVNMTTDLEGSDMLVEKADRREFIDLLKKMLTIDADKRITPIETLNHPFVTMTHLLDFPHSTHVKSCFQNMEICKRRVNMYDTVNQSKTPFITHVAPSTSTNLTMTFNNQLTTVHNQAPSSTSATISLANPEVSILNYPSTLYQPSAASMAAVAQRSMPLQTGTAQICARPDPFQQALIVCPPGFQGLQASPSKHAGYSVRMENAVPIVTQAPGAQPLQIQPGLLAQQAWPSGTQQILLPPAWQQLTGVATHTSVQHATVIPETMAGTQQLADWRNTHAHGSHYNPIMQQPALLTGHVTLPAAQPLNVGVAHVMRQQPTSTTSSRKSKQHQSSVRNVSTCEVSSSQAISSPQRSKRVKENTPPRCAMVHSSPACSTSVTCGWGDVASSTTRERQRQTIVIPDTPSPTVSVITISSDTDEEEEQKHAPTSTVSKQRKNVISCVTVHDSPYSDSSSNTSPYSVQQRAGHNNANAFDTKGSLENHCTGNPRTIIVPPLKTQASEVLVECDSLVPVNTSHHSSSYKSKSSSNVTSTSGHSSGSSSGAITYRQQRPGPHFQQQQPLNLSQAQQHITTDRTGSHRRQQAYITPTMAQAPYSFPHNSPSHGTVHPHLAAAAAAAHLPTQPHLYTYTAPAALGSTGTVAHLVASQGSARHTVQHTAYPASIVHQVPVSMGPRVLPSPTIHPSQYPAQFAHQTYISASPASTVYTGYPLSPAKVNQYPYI
Experimental: as §1

SMILES	remaining activity at 10 µM (VEG-FR) [%]	remaining activity at 10 µM (MNK2) [%]	remaining activity at 10 µM (MST4) [%]	remaining activity at 10 µM (SmMLCK) [%]	remaining activity at 10 µM (Src) [%]	remaining activity at 10 µM (NEK2a) [%]	EC50 [1] [µM]	remaining activity at 10 µM (DYRK3) [%]	remaining activity at 10 µM (PIM3) [%]	remaining activity at 10 µM (IR-HIS) [%]	remaining activity at 10 µM (PLK1 (Okadaic Acid)) [%]	remaining activity at 10 µM (IKKe) [%]	remaining activity at 10 µM (HIPK2) [%]
CC(c1ccccc1)n1c(=O)[nH]c2ncc(-c3ccc(F)cc3)nc21 (stereo not shown) [Compound 1]	117	106	90	80	80	117	> 50	109	83	88	96	106	101
O=c1[nH]c2ncc(-c3ccc(F)cc3)nc2n1CC1CC1 [Compound 10]	98	99	92	74	98	101	> 50	108	89	109	109	94	69
O=c1[nH]c2ncc(-c3ccc(F)cc3)nc2n1C1CCCCC1 [Compound 12, 1-Cyclohexyl-6-(4-fluorophenyl)-1H-imidazo[4,5-b]pyrazin-2(3H)-one]	107	103	100	89	94	93	> 50	99	90	119	96	88	97
C[C@H](c1ccccc1)n1c(=O)[nH]c2ncc(-c3ccccc3)nc21 [Compound 14, (R)-6-Phenyl-1-(1-phenylethyl)-1H-imidazo[4,5-b]pyrazin-2(3H)-one]	73	97	88	64	70	96	26	100	83	93		91	80
O=c1[nH]c2ncc(-c3ccccc3CO)nc2n1C1CCCCC1 [Compound 28]							> 50						
